{"source": "patent US10052311B2", "about": "“PPAR compounds for use in the treatment of fibrotic diseases” (INVENTIVA, priority 2014, dated 2018)", "tested_on": "anti-GBM exposed mice", "assay": "Anti-GBM induced glomerulonephritis in mice", "type": "in vivo, mouse", "conditions": "10 mg/kg/day po 7 days, vs vehicle"}
{"smiles": "C[C@H](CS)C(=O)N1CCC[C@H]1C(=O)O", "note": "[captopril, reference compound]", "values": [{"measurement": "Col1a expression (kidney)", "result": "had no effect on Col1a expression"}, {"measurement": "Col3a expression (kidney)", "result": "had no effect on Col3a expression"}, {"measurement": "TGFβR-1 expression (kidney)", "result": "had no effect on TGFβ-R1 expression"}, {"measurement": "kidney MCP-1 levels", "result": "significantly reduced MCP-1 levels"}, {"measurement": "kidney osteopontin levels", "result": "significantly reduced osteopontin levels"}, {"measurement": "serum urea levels", "result": "reduced urea level without reaching significance"}, {"measurement": "urinary albumin levels", "result": "reduced albumin levels without reaching significance"}]}
